# Source: patent US10245244B2, “Pharmaceutical formulations for the treatment of pulmonary arterial hypertension” (HEART BIOTECH PHARMA LIMITED, priority 2014, dated 2019)
# Experiments:
# aorta = assay: U46619 contractile responses of aorta; settings: control mice (normoxic), FIG. 9a
# pulmonary arteries = assay: U46619 contractile responses of pulmonary arteries; settings: control mice (normoxic), FIG. 9a
smiles,measurement,setting,value
"CCCCC[C@H](O)/C=C/[C@@H]1[C@@H](C/C=C\CCCC(=O)O)[C@H]2CO[C@@H]1C2 [U46619, 9,11-Dideoxy-9α,11α-methanoepoxy prostaglandin F2α]",contraction of the aorta,aorta,significant contraction
same,contraction of the pulmonary artery,pulmonary arteries,less contraction
